Measured values from patent US20260218439A1, “METHOD OF TREATING OR REDUCING CANCER COMPRISING ADMINISTERING A COMPOUND 3-(BENZO[D][1,3]DIOXOL-5-YL)-7-(1-HYDROXYPROPAN-2-YL)-1-(1H-INDOLE-3-YL)-6,7-DIHYDRO-3H-OXAZOLE[3,4-A]PYRAZINE-5,8-DIONE” (BIOLAB SANUS FARMACEUTICA LTDA, priority 2019, published 2026).

Tests used:
PDE5A1 = biological target: T1, PDE5A1 (Homo sapiens, UniProt O76074); test: PDE5A1 fluorescence polarization enzyme assay (BPS Bioscience kit 60350); type: biochemical
T1 construct: purchased BPS Bioscience 60350
Experimental: The evaluation of the compound is studied using BPS Bioscience enzyme assay kit (catalogue 60350). The PDE5A1 Assay kit is designed for identification of PDE5A1 inhibitors using fluorescence polarization. The assay is based on the binding of a fluorescent nucleotide monophosphate generated by PDE5A1 enzyme to the binding agent.
In this methodology only two simple steps on a microtiter plate are required for PDE5A1 reactions. First, the fluorescently labeled cGMP is incubated with PDE5A1 for 1 hour. Second, the binding agent is added to the reaction mixture to produce a change in fluorescent polarization that can then be measured using a fluorescence reader equipped for the measurement of fluorescence polarization.
For the assay the storage reagent FAM-Cyclic-3′,5′-GMP (20 μM) is diluted with PDE assay buffer to achieve the solution with a […]; the PDE5A1 enzyme is thawed and diluted with the PDE buffer obtaining a PDE5A1 solution at 10 μg/mL.
The assay compounds are diluted with DMSO 100% (v/v) at a concentration of 1000 μM and subsequently diluted in a Sodium chloride 0.9% solution to obtain a curve of concentrations of interest for the assay. The compounds are diluted in concentrations of: 10 nM, 30 nM, 50 nM, 100 nM, 300 nM, 500 nM, 1 μM, 3 μM, 5 μM (DMSO 10% v/v).
The study is comprised of groups: (i) substrate control; (ii) positive control (KIT); (iii) samples in several concentrations; (iv) tadalafil (comparative control). Each parameter (group) is triple labeled.
• For the 4 groups there is added, to each microplate well, […] of the FAM-Cyclic-3′ reagent, 5′-GMP (200 μM). • To the substrate control group there is added, to each well, […] of vehicle (DMSO 10% v/v) and […] PDE Buffer. • To the positive control group there is added, to each well, […] of vehicle (DMSO 10% v/v). • To the tadalafil group: there is added 5 mL of the solution in the concentrations of interest. • To the test group there is added 5 mL of the sample solution (test compound)
OBSERVATION: the parameters tested are in triplicate.
To begin the reaction, add […] of the PDE5A1 enzyme (diluted as described above) to the microplate wells designated as Positive Control and Samples (test and tadalafil), and incubate the microplate, for 1 hour, at a temperature of 25° C.
After the incubation period, the reaction is interrupted by the addition, in all the wells, of […] of the binding agent solution and the microplate is incubated for 30 minutes, under light stirring, at room temperature. The reading of the microplate is carried out in Polarized Fluorescence (475-495 nm—excitation and 518-538 nm—emission detection) 500 nanoseconds integration time.

[1] = test system: PC3-human prostate cancer cells; test: Cell proliferation inhibition (CYQuant intracellular DNA), PC3; type: cell-based; conditions: for % Cell Proliferation Inhibition (intracellular DNA) PC-3 (average ± E.P.M.): 72 hours
Experimental: (§1) For the execution of the assay, the compounds are diluted in DMSO 100% (v/v) at a concentration of 1000 μM and subsequently diluted in a Sodium Chloride solution 0.9% to obtain the storage solutions of interest for use in the assays. The final concentration of interest will be directly diluted in the cell culture medium. For the assay there are used the following tumor cell lineages: PC3-human prostate cancer cells; LNCAP-human prostate cancer cells; DU145-human prostate cancer; MNK45-human gastric cancer and RT4-human bladder cancer cells. The tumor cell lineages are maintained in culture according to standard procedures established by the Cell Bank of Rio de Janeiro (lineage place of origin) Procedure: • For the assay, the tumor cells are seeded in the concentration of 10.000 cells per well (final volume of the reaction of […]), the plate is incubated for 8 hours, for the cells to adhere to the wall of the wells. After this period, the plate is divided in groups: • (a) test group: […] of the samples were added (test compound) in the concentrations of interest; • (b) positive control group: […] of culture medium were added (100% of cell proliferation); • (c) negative control group: 200 mL of culture medium and […] of the vehicle used were added to dilute the compounds (without cells—zero proliferation); • (d) control group: […] were added of the vehicle used to dilute the compounds. This group is important to evaluate whether the vehicle used interferes in the cell proliferation. OBSERVATION: the treatment with the concentrations of samples (test compounds) and of the controls are carried out in triplicate. • Incubate the plate for 72 hours in a CO2 kiln at 37° C. • After the incubation period, add […] of the solution with DNA marker from the CYQuant Kit and incubate the plate, for 60 minutes, in a CO2 incubator at 37° C. The fluorescence intensity is determined using a fluorescence microplate reader with 485 nm excitation and 530 nm emission detection. The results obtained were normalized relative to the positive control group (100% proliferation). For the compounds there are prepared the storage solutions in the concentrations of: 100 nM, 1 μM, 3 μM, 5 μM, 10 μM and 30 μM (DMSO 10% v/v). While the final concentrations in the test are of: 10 nM, 100 nM, 300 nM, 500 nM, 1000 nM and 3000 nM (in DMSO 1% v/v).

[2] = test system: LNCAP-human prostate cancer cells; test: Cell proliferation inhibition (CYQuant intracellular DNA), LNCAP; type: cell-based; conditions: for % Cell Proliferation Inhibition (intracellular DNA) LNCAP (average ± E.P.M.): 72 hours
Experimental: as §1

[3] = test system: DU145-human prostate cancer; test: Cell proliferation inhibition (CYQuant intracellular DNA), DU145; type: cell-based; conditions: for % Cell Proliferation Inhibition (intracellular DNA) DU145 (average ± E.P.M.): 72 hours
Experimental: as §1

[4] = test system: MNK45-human gastric cancer; test: Cell proliferation inhibition (CYQuant intracellular DNA), MNK45; type: cell-based; conditions: 72 hours
Experimental: as §1

[5] = test system: RT4-human bladder cancer cells; test: Cell proliferation inhibition (CYQuant intracellular DNA), RT4; type: cell-based; conditions: for % Cell Proliferation Inhibition (intracellular DNA) RT4 (average ± E.P.M.): 72 hours
Experimental: as §1

(R)-3-(benzo [d][1, 3]dioxol-5-yl)-7-((R)-1-hydroxypropan-2-yl)-1-(1H-indole-3-yl)-6, 7-dihydro-3H-oxazole [3, 4-a]pyrazine-5, 8-dione with (S)-3-(benzo [d][1,3]dioxol-5-yl)-7-((R)-1-hydroxypropan-2-yl)-1-(1H-indole-3-yl)-6, 7-dihydro-3H-oxazole [3, 4-a]pyrazine-5, 8-dione [BL-380]
% of Inhibition (PDE5A1) (PDE5A1; compound 10 nM): 0% | % of Inhibition (PDE5A1) (PDE5A1; compound 30 nM): 0% | % of Inhibition (PDE5A1) (PDE5A1; compound 50 nM): 0% | % of Inhibition (PDE5A1) (PDE5A1; compound 100 nM): 0% | % of Inhibition (PDE5A1) (PDE5A1; compound 300 nM): 15 ± 3% | % of Inhibition (PDE5A1) (PDE5A1; compound 500 nM): 25 ± 3% | % of Inhibition (PDE5A1) (PDE5A1; compound 1000 nM): 55 ± 4% | % of Inhibition (PDE5A1) (PDE5A1; compound 3000 nM): 65 ± 2% | % of Inhibition (PDE5A1) (PDE5A1; compound 5000 nM): 78 ± 1% | PDE5 inhibition (result in words) (PDE5A1; concentration series): capable of inhibiting the PDE5 in a dose-dependent manner | concentration as from which PDE5 inhibition was observed (PDE5A1; tested 10 nM to 5000 nM): ≥ 300 nM | antiproliferative effect (result in words) ([1]; PC3 prostate cancer tumor lineage): presented antiproliferative effect | % Cell Proliferation Inhibition (intracellular DNA) PC-3 (average ± E.P.M.) ([1]; PC-3, 10 nM): 39 ± 6% | % Cell Proliferation Inhibition (intracellular DNA) PC-3 (average ± E.P.M.) ([1]; PC-3, 100 nM): 25 ± 5% | % Cell Proliferation Inhibition (intracellular DNA) PC-3 (average ± E.P.M.) ([1]; PC-3, 300 nM): 28 ± 2% | % Cell Proliferation Inhibition (intracellular DNA) PC-3 (average ± E.P.M.) ([1]; PC-3, 500 nM): 48 ± 6% | % Cell Proliferation Inhibition (intracellular DNA) PC-3 (average ± E.P.M.) ([1]; PC-3, 1000 nM): 40 ± 3% | % Cell Proliferation Inhibition (intracellular DNA) PC-3 (average ± E.P.M.) ([1]; PC-3, 3000 nM): 54 ± 4% | antiproliferative effect (result in words) ([2]; LNCAP prostate cancer tumor lineage): presented antiproliferative effect | % Cell Proliferation Inhibition (intracellular DNA) LNCAP (average ± E.P.M.) ([2]; 10 nM): 26 ± 10% | % Cell Proliferation Inhibition (intracellular DNA) LNCAP (average ± E.P.M.) ([2]; 100 nM): 12 ± 3% | % Cell Proliferation Inhibition (intracellular DNA) LNCAP (average ± E.P.M.) ([2]; 300 nM): 29 ± 6% | % Cell Proliferation Inhibition (intracellular DNA) LNCAP (average ± E.P.M.) ([2]; 500 nM): 27 ± 2% | % Cell Proliferation Inhibition (intracellular DNA) LNCAP (average ± E.P.M.) ([2]; 1000 nM): 37 ± 2% | % Cell Proliferation Inhibition (intracellular DNA) LNCAP (average ± E.P.M.) ([2]; 3000 nM): 48 ± 6% | % Cell Proliferation Inhibition (intracellular DNA) DU145 (average ± E.P.M.) ([3]; DU145, 100 nM): 12 ± 4% | % Cell Proliferation Inhibition (intracellular DNA) DU145 (average ± E.P.M.) ([3]; DU145, 300 nM): 10 ± 5% | % Cell Proliferation Inhibition (intracellular DNA) DU145 (average ± E.P.M.) ([3]; DU145, 500 nM): 12 ± 2% | % Cell Proliferation Inhibition (intracellular DNA) DU145 (average ± E.P.M.) ([3]; DU145, 1000 nM): 10 ± 3% | % Cell Proliferation Inhibition (intracellular DNA) DU145 (average ± E.P.M.) ([3]; DU145, 3000 nM): 31 ± 5% | antiproliferative effect (result in words) ([3]; DU145 prostate cancer tumor lineage): presented antiproliferative effect | % Cell Proliferation Inhibition (intracellular DNA) MNK45 (average ± E.P.M.) ([4]; MNK45, 100 nM): 7 ± 2% | % Cell Proliferation Inhibition (intracellular DNA) MNK45 (average ± E.P.M.) ([4]; MNK45, 300 nM): 0% | % Cell Proliferation Inhibition (intracellular DNA) MNK45 (average ± E.P.M.) ([4]; MNK45, 500 nM): 0% | % Cell Proliferation Inhibition (intracellular DNA) MNK45 (average ± E.P.M.) ([4]; MNK45, 1000 nM): 0% | % Cell Proliferation Inhibition (intracellular DNA) MNK45 (average ± E.P.M.) ([4]; MNK45, 3000 nM): 16 ± 5% | % Cell Proliferation Inhibition (intracellular DNA) RT4 (average ± E.P.M.) ([5]; RT4, 100 nM): 8 ± 6% | % Cell Proliferation Inhibition (intracellular DNA) RT4 (average ± E.P.M.) ([5]; RT4, 300 nM): 5 ± 5% | % Cell Proliferation Inhibition (intracellular DNA) RT4 (average ± E.P.M.) ([5]; RT4, 500 nM): 3 ± 5% | % Cell Proliferation Inhibition (intracellular DNA) RT4 (average ± E.P.M.) ([5]; RT4, 1000 nM): 3 ± 1% | % Cell Proliferation Inhibition (intracellular DNA) RT4 (average ± E.P.M.) ([5]; RT4, 3000 nM): 58 ± 4% | antiproliferative effect (result in words) ([5]; RT4 bladder cancer tumor lineage): presented antiproliferative effect
